Patent publication US20250115600A1, “COVALENT MODIFIERS OF AKT1 AND USES THEREOF” (Terremoto Biosciences, Inc., priority 2022, published 2025)

What was measured:
AKT1 WT [1] = biological target: T1, AKT1 WT (Homo sapiens (Human), UniProt P31749); experiment: Intact mass spectrometry, covalent complex formation and ARQ-092 competition; format: binding; conditions: protein 1 μM, compound 1.5 μM, 2 hrs at 37° C., NaBH4 reduction; for covalent complex formation with AKT1 WT protein: absence of competitor; for covalent complex formation with AKT1 WT protein in presence of competitor: with ARQ092 (50 μM)
Protocol: (§1) AKT1 WT or AKT1 E17K (1 μM) was treated with a compound from Table 1 (1.5 μM) for 2 hrs at 37° C., with and without ARQ092 (50 μM) competitor as a specificity control. Reversible imines were captured by reductive amination with 5 mM NaBH4 for 5 min. Reduction reactions were quenched by diluting the sample in equal volume acetonitrile+1% TFA, then analyzed by LCMS.
(§2) FIGS. 1 to 25 provide intact mass spectra for AKT1 WT protein and AKT1 E17K mutant protein after incubation with compounds of the present disclosure and subsequent borohydride reduction. […] Further, FIGS. 1 to 10, 12, and 14 to 25 each provide intact mass spectra following the incubation of an AKT1 protein with a compound of the present disclosure both in the absence of a competitor molecule (i.e., ARQ-092, a molecule known to bind to and inhibit the function of AKT1); and in the presence of a significant stoichiometric excess of a competitor molecule.
Target sequence in this assay (P31749 2-480): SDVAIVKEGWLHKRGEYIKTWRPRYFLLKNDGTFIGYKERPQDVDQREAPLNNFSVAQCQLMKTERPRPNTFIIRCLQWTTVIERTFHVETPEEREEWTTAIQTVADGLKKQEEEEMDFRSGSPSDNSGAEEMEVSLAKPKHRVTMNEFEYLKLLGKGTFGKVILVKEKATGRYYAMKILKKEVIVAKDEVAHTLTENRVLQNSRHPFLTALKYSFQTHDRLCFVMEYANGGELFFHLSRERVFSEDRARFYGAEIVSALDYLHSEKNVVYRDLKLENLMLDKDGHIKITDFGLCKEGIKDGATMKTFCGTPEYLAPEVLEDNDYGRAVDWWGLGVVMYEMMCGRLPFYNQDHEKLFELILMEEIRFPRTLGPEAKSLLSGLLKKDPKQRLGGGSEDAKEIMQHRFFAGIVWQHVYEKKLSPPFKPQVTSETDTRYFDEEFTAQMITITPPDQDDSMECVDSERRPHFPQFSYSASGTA

AKT1 E17K mutant protein = AKT1 E17K mutant protein (Homo sapiens (Human), UniProt P31749, E17K); experiment: as above; format: binding; conditions: for covalent complex formation with AKT1 E17K mutant protein / covalent complex formation with AKT1 E17K mutant protein in presence of competitor: protein 1 μM, compound 1.5 μM, 2 hrs at 37° C., NaBH4 reduction; for covalent complex formation with AKT1 E17K mutant protein: absence of competitor; for covalent complex formation with AKT1 E17K mutant protein in presence of competitor: with ARQ092 (50 μM)
Sequence of AKT1 E17K mutant protein (P31749 2-480 E17K): as the sequence (P31749 2-480) above, with E16K counted along it
Protocol: as §1, §2

AKT1 E17K = AKT1 E17K (Homo sapiens (Human), UniProt P31749, E17K); experiment: Live cell target engagement (NanoBRET) in HEK293 cells; format: cell-based; conditions: for IC50: HEK293, 2 hours at 37° C.
Sequence of AKT1 E17K (P31749 whole entry E17K): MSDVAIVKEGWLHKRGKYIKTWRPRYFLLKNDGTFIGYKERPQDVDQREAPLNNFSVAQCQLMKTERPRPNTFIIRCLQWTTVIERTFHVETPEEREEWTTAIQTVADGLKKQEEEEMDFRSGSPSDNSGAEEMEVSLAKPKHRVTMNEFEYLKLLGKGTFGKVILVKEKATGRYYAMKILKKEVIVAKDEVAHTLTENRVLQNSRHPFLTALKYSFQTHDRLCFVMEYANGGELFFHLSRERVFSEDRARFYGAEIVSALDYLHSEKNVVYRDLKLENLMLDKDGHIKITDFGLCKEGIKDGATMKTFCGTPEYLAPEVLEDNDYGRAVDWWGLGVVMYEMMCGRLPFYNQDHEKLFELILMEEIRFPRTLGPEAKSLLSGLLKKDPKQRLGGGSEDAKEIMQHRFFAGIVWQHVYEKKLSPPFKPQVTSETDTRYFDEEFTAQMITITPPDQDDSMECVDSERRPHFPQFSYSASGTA

AKT2 = AKT2 (Homo sapiens (Human), UniProt P31751); experiment: as above; format: cell-based; conditions: HEK293, 2 hours at 37° C.
Sequence of AKT2 (P31751 whole entry): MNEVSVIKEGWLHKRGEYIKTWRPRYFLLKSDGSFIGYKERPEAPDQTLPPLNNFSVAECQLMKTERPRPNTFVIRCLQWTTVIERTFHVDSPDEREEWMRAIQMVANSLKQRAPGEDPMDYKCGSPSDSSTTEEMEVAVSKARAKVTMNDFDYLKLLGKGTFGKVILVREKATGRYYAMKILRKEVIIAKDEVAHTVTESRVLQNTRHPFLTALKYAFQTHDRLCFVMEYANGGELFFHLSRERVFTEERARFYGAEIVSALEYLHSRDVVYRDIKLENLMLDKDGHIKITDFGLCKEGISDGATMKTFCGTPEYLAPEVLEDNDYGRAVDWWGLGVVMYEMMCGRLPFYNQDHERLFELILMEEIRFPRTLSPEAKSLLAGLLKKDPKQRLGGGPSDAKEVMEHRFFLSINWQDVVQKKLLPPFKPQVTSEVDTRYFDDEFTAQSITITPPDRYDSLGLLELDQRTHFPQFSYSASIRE

AKT1 WT [2] = biological target: T1, AKT1 WT; experiment: as above; format: cell-based; conditions: HEK293, 2 hours at 37° C.
Target sequence in this assay (P31749 whole entry): as the sequence (P31749 whole entry E17K) above, with K17E counted along it

AKT1 WT [3] = biological target: T1, AKT1 WT; experiment: Dissociation rate by intact protein LCMS after ARQ092 chase; format: binding; conditions: compound 1.5 μM, 2 hours at 37° C., then ARQ092 50 μM
Protocol: AKT1 WT or AKT1 E17K (1 μM) were treated with a compound of Table 1 (1.5 μM) for 2 hours at 37° C., then ARQ092 (50 μM final concentration) was added to prevent aldehyde-containing compound rebinding after initial dissociation. At various timepoints, aliquots were removed and quenched with 5 mM NaBH4 for 5 min to capture the reversible imine through reductive amination. Reduction reactions were quenched by diluting the sample in equal volume acetonitrile+1% TFA, then analyzed by LCMS. Deconvoluted monoisotopic intensities of unmodified vs. compound-modified mass peaks were compared.
Target sequence in this assay (P31749 2-480): as the sequence (P31749 2-480) above

| covalent complex formation with AKT1 WT protein (AKT1 WT [1]) | AKT1 E17K IC50: Selectivity vs AKT1 WT (AKT1 E17K) | AKT1 E17K IC50: Selectivity vs AKT2 (AKT1 E17K) | IC50 (AKT1 E17K) [nM] | IC50 (AKT2) [nM] | IC50 (AKT1 WT [2]) [nM] | AKT1 (WT) t1/2 (AKT1 WT [3]) [min] | SMILES | covalent complex formation with AKT1 WT protein in presence of competitor (AKT1 WT [1]) | selectivity of complex formation, AKT1 E17K versus AKT1 WT (AKT1 E17K mutant protein; comparison of the spectra without competitor) | covalent complex formation with AKT1 E17K mutant protein (AKT1 E17K mutant protein) | covalent complex formation with AKT1 E17K mutant protein in presence of competitor (AKT1 E17K mutant protein) |
| --- | --- | --- | --- | --- | --- | --- | --- | --- | --- | --- | --- |
| presence of a covalent complex | 1.7 | 20 | < 100 | 100 to 500 | < 100 | 47.8 | Cc1ccc2nc(-c3cccnc3N)n(-c3ccc(C4(NC(=O)Cc5ccc(C=O)c(O)c5F)CC4)cc3)c2n1 [Compound 139, N-(1-{4-[2-(2-aminopyridin-3-yl)-5-methylimidazo[4,5-b]pyridin-3-yl]phenyl}cyclopropyl)-2-(2-fluoro-4-formyl-3-hydroxyphenyl)acetamide] | Essentially no covalent complex formation | selective for complex formation with AKT1 E17K | significant presence of a covalent complex | lower level of covalent complex formation |
| presence of a covalent complex | 1.4 | 10 | < 100 | 100 to 500 | < 100 |  | Nc1ncccc1-c1nc2ccc(N3CCOCC3)nc2n1-c1ccc(C2(NC(=O)Cc3ccc(C=O)c(O)c3F)CC2)cc1 [Compound 140, N-(1-{4-[2-(2-aminopyridin-3-yl)-5-(morpholin-4-yl)imidazo[4,5-b]pyridin-3-yl]phenyl}cyclopropyl)-2-(2-fluoro-4-formyl-3-hydroxyphenyl)acetamide] | Essentially no covalent complex formation |  | significant presence of a covalent complex | Essentially no covalent complex formation |
| presence of covalent complex | 2.2 | 14 | < 100 | > 500 | 100 to 500 |  | Nc1ncccc1-c1nc2cccnc2n1-c1ccc(CNCCc2ccc(C=O)c(O)c2)cc1 [Compound 114, 4-(2-((4-(2-(2-aminopyridin-3-yl)-3H-imidazo[4,5-b]pyridin-3-yl)benzyl)amino)ethyl)-2-hydroxybenzaldehyde] | Essentially no covalent complex formation |  | presence of covalent complex | Essentially no covalent complex formation |
| presence of a covalent complex | 5 | 120 | < 100 | > 500 | 100 to 500 |  | CC(=O)Nc1cc(CC(=O)NCc2ccc(-n3c(-c4cccnc4N)nc4cccnc43)cc2)ccc1C=O [Compound 91, 2-(3-acetamido-4-formylphenyl)-N-(4-(2-(2-aminopyridin-3-yl)-3H-imidazo[4,5-b]pyridin-3-yl)benzyl)acetamide] | Essentially no covalent complex formation |  | presence of a covalent complex | Essentially no covalent complex formation |
| presence of covalent complex | 1.3 | 3.2 | < 100 | < 100 | < 100 |  | Nc1ncccc1-c1nc2ccc(-c3ccccc3)nc2n1-c1ccc(CNCCc2ccc(C=O)c(O)c2F)cc1 [Compound 122, 4-{2-[({4-[2-(2-aminopyridin-3-yl)-5-phenylimidazo[4,5-b]pyridin-3-yl]phenyl}methyl)amino]ethyl}-3-fluoro-2-hydroxybenzaldehyde] | Essentially no covalent complex formation |  | presence of covalent complex | Essentially no covalent complex formation |
| presence of covalent complex | 3.2 | 23 | < 100 | 100 to 500 | < 100 |  | Nc1ncccc1-c1nc2ccc(-c3ccccc3)nc2n1-c1ccc(CNC(=O)Cc2ccc(C=O)c(O)c2)cc1 [Compound 132, N-(4-(2-(2-aminopyridin-3-yl)-5-phenyl-3H-imidazo[4,5-b]pyridin-3-yl)benzyl)-2-(4-formyl-3-hydroxyphenyl)acetamide] | Essentially no covalent complex formation |  | presence of covalent complex | Essentially no covalent complex formation |
| significant presence of covalent complex | 20 | 1500 | < 100 | > 500 | < 100 |  | Nc1ncccc1-c1nc2ccc(N3CCOCC3)nc2n1-c1ccc(CNC(=O)Cc2ccc(C=O)c(O)c2)cc1 [Compound 49, N-({4-[2-(2-aminopyridin-3-yl)-5-(morpholin-4-yl)imidazo[4,5-b]pyridin-3-yl]phenyl}methyl)-2-(4-formyl-3-hydroxyphenyl)acetamide] | Essentially no covalent complex formation |  | significant presence of a covalent complex | Essentially little to no covalent complex formation |

| SMILES | covalent complex formation with AKT1 WT protein (AKT1 WT [1]) | AKT1 E17K IC50: Selectivity vs AKT1 WT (AKT1 E17K) | AKT1 E17K IC50: Selectivity vs AKT2 (AKT1 E17K) | IC50 (AKT1 E17K) [nM] | IC50 (AKT2) [nM] | IC50 (AKT1 WT [2]) [nM] | AKT1 (WT) t1/2 (AKT1 WT [3]) [min] | covalent complex formation with AKT1 WT protein in presence of competitor (AKT1 WT [1]) | selectivity of complex formation, AKT1 E17K versus AKT1 WT (AKT1 E17K mutant protein; comparison of the spectra without competitor) | covalent complex formation with AKT1 E17K mutant protein (AKT1 E17K mutant protein) | covalent complex formation with AKT1 E17K mutant protein in presence of competitor (AKT1 E17K mutant protein) |
| --- | --- | --- | --- | --- | --- | --- | --- | --- | --- | --- | --- |
| Nc1ncccc1-c1nc2ccc(N3CCOCC3)nc2n1-c1ccc(CNCCc2ccc(C=O)c(O)c2)cc1 [Compound 107, 4-(2-((4-(2-(2-aminopyridin-3-yl)-5-morpholino-3H-imidazo[4,5-b]pyridin-3-yl)benzyl)amino)ethyl)-2-hydroxybenzaldehyde] | only peaks corresponding to unmodified WT protein | 3.5 | 76 | < 100 | > 500 | 100 to 500 |  | only peaks corresponding to unmodified WT protein |  | only peaks corresponding to unmodified mutant protein | only peaks corresponding to unmodified mutant protein |
